# Source: ChEMBL document CHEMBL5303573, “Mapping human microbiome drug metabolism by gut bacteria and their genes” (Nature, 2019)
# Key:
# [1] = The drug is tested on Edwardsiella tarda strain: ATCC23685 for biotransformation. The drug concentrations were measured before and after a 12-h incubation by liquid-chromatography-coupled mass spectrometry (LC–MS); settings: 2 µM
# [2] = The drug is tested on Bifidobacterium breve strain: DSM20213 for biotransformation. The drug concentrations were measured before and after a 12-h incubation by liquid-chromatography-coupled mass spectrometry (LC–MS); settings: 2 µM
# [3] = The drug is tested on Bacteroides caccae strain: ATCC43185 for biotransformation. The drug concentrations were measured before and after a 12-h incubation by liquid-chromatography-coupled mass spectrometry (LC–MS); settings: 2 µM
# [4] = The drug is tested on Bifidobacterium ruminantium strain: fecal isolate for biotransformation. The drug concentrations were measured before and after a 12-h incubation by liquid-chromatography-coupled mass spectrometry (LC–MS); settings: 2 µM
# [5] = The drug is tested on Anaerococcus hydrogenalis strain: DSM7454 for biotransformation. The drug concentrations were measured before and after a 12-h incubation by liquid-chromatography-coupled mass spectrometry (LC–MS); settings: 2 µM
# [6] = The drug is tested on Ruminococcus lactaris strain: ATCC29176 for biotransformation. The drug concentrations were measured before and after a 12-h incubation by liquid-chromatography-coupled mass spectrometry (LC–MS); settings: 2 µM
# [7] = bifidobacterium adolescentis, 12 h, 2 µM
# Description: The drug is tested on Bifidobacterium adolescentis strain: ATCC 15703 for biotransformation. The drug concentrations were measured before and after a 12-h incubation by liquid-chromatography-coupled mass spectrometry (LC–MS)
# [8] = The drug is tested on Eubacterium hallii strain: DSM3353 for biotransformation. The drug concentrations were measured before and after a 12-h incubation by liquid-chromatography-coupled mass spectrometry (LC–MS); settings: anaerobutyricum hallii, 2 µM
# [9] = The drug is tested on Blautia luti strain: DSM14534 for biotransformation. The drug concentrations were measured before and after a 12-h incubation by liquid-chromatography-coupled mass spectrometry (LC–MS); type: ADME; set-up: dose 2 uM, timepoint 0 vs 12 hours; settings: 2 µM
# [10] = limosilactobacillus reuteri cf48-3a, 12 h, 2 µM
# Description: The drug is tested on Lactobacillus reuteri CF48-3A strain: BEI HM-102 for biotransformation. The drug concentrations were measured before and after a 12-h incubation by liquid-chromatography-coupled mass spectrometry (LC–MS)
# [11] = roseburia intestinalis, 12 h, 2 µM
# Description: The drug is tested on Roseburia intestinalis strain: L1-82 for biotransformation. The drug concentrations were measured before and after a 12-h incubation by liquid-chromatography-coupled mass spectrometry (LC–MS)
# [12] = segatella copri, 12 h, 2 µM
# Description: The drug is tested on Prevotella copri strain: DSM18205 for biotransformation. The drug concentrations were measured before and after a 12-h incubation by liquid-chromatography-coupled mass spectrometry (LC–MS)
# [13] = bacteroides thetaiotaomicron, 12 h, 2 µM
# Description: The drug is tested on Bacteroides thetaiotaomicron strain: 7330 for biotransformation. The drug concentrations were measured before and after a 12-h incubation by liquid-chromatography-coupled mass spectrometry (LC–MS)
# [14] = The drug is tested on Bacteroides finegoldii strain: DSM17565 for biotransformation. The drug concentrations were measured before and after a 12-h incubation by liquid-chromatography-coupled mass spectrometry (LC–MS); settings: 2 µM
# [15] = The drug is tested on Anaerotruncus colihominis strain: DSM17241 for biotransformation. The drug concentrations were measured before and after a 12-h incubation by liquid-chromatography-coupled mass spectrometry (LC–MS); settings: 2 µM
# [16] = bacteroides fragilis, 12 h, 2 µM
# Description: The drug is tested on Bacteroides fragilis strain: NCTC 9343 for biotransformation. The drug concentrations were measured before and after a 12-h incubation by liquid-chromatography-coupled mass spectrometry (LC–MS)
# [17] = The drug is tested on Clostridium scindens strain: ATCC35704 for biotransformation. The drug concentrations were measured before and after a 12-h incubation by liquid-chromatography-coupled mass spectrometry (LC–MS); settings: 2 µM
# [18] = The drug is tested on Enterococcus faecalis strain: V583 for biotransformation. The drug concentrations were measured before and after a 12-h incubation by liquid-chromatography-coupled mass spectrometry (LC–MS); settings: 2 µM
# [19] = The drug is tested on Coprococcus comes strain: ATCC27758 for biotransformation. The drug concentrations were measured before and after a 12-h incubation by liquid-chromatography-coupled mass spectrometry (LC–MS); type: ADME; set-up: dose 2 uM, timepoint 0 vs 12 hours; settings: 2 µM
Structure (SMILES),Bacterial Biotransformation [1],Bacterial Biotransformation [2],Bacterial Biotransformation [3],Bacterial Biotransformation [4],Bacterial Biotransformation [5],Bacterial Biotransformation [6],Bacterial Biotransformation [7],Bacterial Biotransformation [8],Bacterial Biotransformation [9],Bacterial Biotransformation [10],Bacterial Biotransformation [11],Bacterial Biotransformation [12],Bacterial Biotransformation [13],Bacterial Biotransformation [14],Bacterial Biotransformation [15],Bacterial Biotransformation [16],Bacterial Biotransformation [17],Bacterial Biotransformation [18],Bacterial Biotransformation [19]
CN1C(C(=O)Nc2ccccn2)=C(O)c2sccc2S1(=O)=O [TENOXICAM],Compound NOT metabolized,Compound NOT metabolized,Compound NOT metabolized,Compound NOT metabolized,Compound NOT metabolized,Compound NOT metabolized,Compound NOT metabolized,Compound NOT metabolized,Compound NOT metabolized,Compound NOT metabolized,Compound NOT metabolized,Compound NOT metabolized,Compound NOT metabolized,,,,,,
O=P(O)(O)O.c1ccc(CN(CC2=NCCN2)c2ccccc2)cc1 [ANTAZOLINE PHOSPHATE],Compound NOT metabolized,,Compound NOT metabolized,Compound NOT metabolized,Compound NOT metabolized,Compound NOT metabolized,Compound NOT metabolized,Compound NOT metabolized,Compound NOT metabolized,Compound NOT metabolized,Compound NOT metabolized,Compound NOT metabolized,,Compound NOT metabolized,Compound NOT metabolized,Compound NOT metabolized,Compound NOT metabolized,Compound NOT metabolized,Compound NOT metabolized
CN(C)CCc1c[nH]c2ccc(Cn3cncn3)cc12.O=C(O)c1ccccc1 [RIZATRIPTAN BENZOATE],Compound NOT metabolized,Compound NOT metabolized,Compound NOT metabolized,Compound NOT metabolized,Compound NOT metabolized,Compound NOT metabolized,,Compound NOT metabolized,Compound NOT metabolized,,Compound NOT metabolized,Compound NOT metabolized,,Compound NOT metabolized,Compound NOT metabolized,,Compound NOT metabolized,Compound NOT metabolized,Compound NOT metabolized
CCOC(=O)C1=C[C@]2(CC)CCCN3CCc4c(n1c1ccccc41)[C@@H]32 [VINPOCETINE],Compound NOT metabolized,Compound NOT metabolized,Compound NOT metabolized,Compound NOT metabolized,Compound NOT metabolized,Compound NOT metabolized,Compound NOT metabolized,Compound NOT metabolized,Compound NOT metabolized,Compound NOT metabolized,,Compound NOT metabolized,Compound NOT metabolized,Compound NOT metabolized,Compound NOT metabolized,Compound NOT metabolized,Compound NOT metabolized,Compound NOT metabolized,Compound NOT metabolized
c1ccc2[nH]c(-c3cscn3)nc2c1 [THIABENDAZOLE],Compound NOT metabolized,Compound NOT metabolized,Compound NOT metabolized,Compound NOT metabolized,Compound NOT metabolized,Compound NOT metabolized,Compound NOT metabolized,Compound NOT metabolized,Compound NOT metabolized,Compound NOT metabolized,Compound NOT metabolized,Compound NOT metabolized,,Compound NOT metabolized,Compound NOT metabolized,,Compound NOT metabolized,Compound NOT metabolized,Compound NOT metabolized
Cc1ccc(-c2nc3ccc(C)cn3c2CC(=O)N(C)C)cc1 [ZOLPIDEM],Compound NOT metabolized,Compound NOT metabolized,Compound NOT metabolized,Compound NOT metabolized,Compound NOT metabolized,Compound NOT metabolized,Compound NOT metabolized,Compound NOT metabolized,Compound NOT metabolized,Compound NOT metabolized,Compound NOT metabolized,Compound NOT metabolized,Compound NOT metabolized,Compound NOT metabolized,Compound NOT metabolized,Compound NOT metabolized,,Compound NOT metabolized,Compound NOT metabolized
O=C(CCCN1CCC2(CC1)C(=O)NCN2c1ccccc1)c1ccc(F)cc1 [SPIPERONE],Compound NOT metabolized,Compound NOT metabolized,Compound NOT metabolized,Compound NOT metabolized,Compound NOT metabolized,Compound NOT metabolized,Compound NOT metabolized,Compound NOT metabolized,Compound NOT metabolized,Compound NOT metabolized,,Compound NOT metabolized,,Compound NOT metabolized,,Compound NOT metabolized,Compound NOT metabolized,Compound NOT metabolized,
C[C@@H](CO)NC(=O)[C@@H]1C=C2c3cccc4[nH]cc(c34)C[C@H]2N(C)C1.O=C(O)/C=C\C(=O)O [ERGONOVINE MALEATE],Compound NOT metabolized,,,Compound NOT metabolized,Compound metabolized,Compound metabolized,,,Compound NOT metabolized,Compound metabolized,Compound NOT metabolized,Compound metabolized,Compound metabolized,Compound NOT metabolized,Compound metabolized,Compound metabolized,Compound metabolized,Compound NOT metabolized,Compound metabolized
